{
  "source": "patent US9586994B2",
  "about": "“CD44V6-derived peptides for treating breast cancer” (KARLSRUHER INSTITUT FÜR TECHNOLOGIE, priority 2012, dated 2017)",
  "key": {"Met": {"test_system": "Met", "conditions": "N and E of the pentapeptide changed to A, Matzke et al., Cancer Res. (2005), cited from earlier work"}, "CD44v6": {"test_system": "CD44v6", "assay": "HGF-induced activation of Met and ERK in L3.6pl cells (Western blot)", "format": "cell-based, human", "conditions": "peptide before induction with 10 ng/ml HGF", "description": "Serum-starved cells (24 hours) were induced with the growth factor HGF (10 ng/mL) at 37° C. for 5 minutes. Where indicated, the cells were treated with peptides (100 ng/ml) prior to induction at 37° C. for 10 minutes (100 ng/mL CD44v6 peptide or control peptide). Following the induction with HGF, cells were washed with ice-cold phosphate-buffered saline (PBS). To detect activated Met and ERK, cells were lysed in sodium dodecyl sulfate (SDS)—sample buffer containing 100 mM dithiothreitol (DTT), boiled and subjected to western blot analysis using antibodies against phospho-Met and ERK. The loading controls were performed on the same blot after stripping (62.5 mM Tris, pH 6.8, 2% SDS, 0.8% DTT) by probing with the Met respectively Erk antibody. Blots were stained using the enhanced chemiluminescence system (Thermo Fisher Scientific, Schwerte, Germany). Bands in western blot analysis were quantified with the program Image J (National Institutes of Health).\nTo expand the studies to human pancreatic tumors, the highly metastatic human pancreatic carcinoma cells L3.6pl (Bruns, et al. Neoplasia (1999), 1(1):50-62) were investigated. These cells originate from the […] cells that have been passaged several times in the liver and the pancreas, a step that rendered them more and more metastatic. It was confirmed that Met is dependent on CD44v6 for its activation and signaling in these cells (FIG. 19A). The L3.6pl cells were treated with HGF in the presence or absence of a human v6 peptide of SEQ ID NO: 2 or SEQ ID NO:6 and Met activation and downstream signaling to ERK was measured. Phosphorylation of both Met and ERK was inhibited by the human v6 peptide. Treatment with a corresponding rat v6 peptide (ctrl peptide, SEQ ID NO: 10 or 11) had no influence on receptor activation and signal transduction (FIG. 19A).\nThe contribution of CD44v6 to Met signaling in the human epithelial pancreatic cancer cells L3.6pl (derived from Colo 357), the cervix carcinoma cells HeLa and the colon cancer cells HT29 were analysed using the CD44v6 peptide (v6 14mer; v6 5mer tested as well, data not shown)."}, "L3.6pl cells": {"test_system": "L3.6pl cells", "assay": "Human orthotopic pancreatic cancer model, L3.6pl cells in nude mice, treatment from day 7", "format": "in vivo, mouse", "conditions": "nude mice, orthotopic L3.6pl; 20 μg i.p. three times per week; listed as rat-specific peptide", "description": "In the case of the human orthotopic model, L3.6pl pancreatic carcinoma cells (passage 24-26) were suspended in Hank's balanced salt solution (Invitrogen, Karlsruhe, Germany) after trypsinization. The cells were injected orthotopically in the pancreas of male nude mice as described (Bruns C J et al. (1999) Neoplasia 1(1):50-62). Two groups of 15 mice each were injected i.p. 7 days later with either the human v6 peptide respectively rat control peptide (20 μg). For all experiments described and depicted herein either the rat 14mer control peptide or the human 14mer peptide were used. All experiments were then repeated with the rat 5mer control peptide or the human 5mer peptide (N-R-W-H-E, SEQ ID NO: 2). […] The injection was repeated three times per week for 21 days. Two days after the last treatment the animals were killed.\n7 μm thick paraffin sections were deparaffinized and rehydrated. For P-Met staining antigen unmasking was achieved by boiling the slides in 1 mM EDTA pH 8.0 followed by incubation for 15 minutes at a sub-boiling temperature, for CD31 staining the sections were treated with Proteinase K (8 μg/ml) for […] at 37° C. For immunofluorescence staining of P-Met, unspecific binding was blocked with 5% goat serum (DAKO, Glostrup, Denmark) (diluted in 1×PBS/0.3% Triton X-100) for 60 minutes. In the case of immunohistochemistry, endogenous peroxidases were at first blocked with 3% H2O2 in PBS followed by incubation with biotin blocking system (Dako, Glostrup, Denmark) and then unspecific binding was inhibited by incubation with 5% FCS in PBS was used for blocking. The sections were incubated with the P-Met antibody (D26, dilution 1:50 in 1×PBS/1% BSA/0.3% Triton X-100), Met antibody (C-28, dilution 1:50), GFP antibody (sc-101525, dilution 1:50) or CD31 antibody (5 μg/ml) over night or VFF18 (5 μg/ml) o/n at 4° C. After washing in PBS the sections were incubated with Alexa Fluor R 546 goat anti-rabbit (in case of immunofluorescence P-Met and Met staining, dilution 1:500) or a biotinylated secondary antibody (for immunohistochemical stainings rabbit anti-rat antibody for VFF18 and CD31, goat anti-rabbit for P-Met, cleaved Caspase-3 and cleaved Caspase-8 and rabbit anti-mouse for GFP, dilution 1:500) for 45 minutes. For DAB staining the sections were treated with a streptavidin-peroxidase conjugate (Dako, Glostrup, Denmark) and developed with DAB (3,3′-diaminobenzidine) substrate system (3,3′-diaminobenzidine; Biozol, Eching, Germany) For immunofluorescence DAPI was used for nuclear staining.\nTo test the effect of the peptide on tumor growth and metastasis formation the L3.6pl cells were orthotopically injected into the pancreas of immunosuppressed mice (NCI-nu). […] The primary tumor expresses a high amount of CD44v6 (FIG. 19B). […] Indeed, human HGF in a concentration of 3375 pg/ml was detected in the supernatant (see Material and Methods) after 5 days of culture (data not shown)."}, "BSp73ASs6 cells": {"test_system": "BSp73ASs6 cells", "assay": "Rat syngeneic model, subcutaneous BSp73ASs6 tumors, treatment from one week (metastasis formation)", "format": "in vivo", "conditions": "rats, s.c. BSp73ASs6", "description": "In the case of the rat syngeneic model, 1×10^6 pancreatic cells (BSp73AS and its transfectants) were subcutaneously injected into the right posterior flank of the animals. Tumors developed for four weeks. During this time period animals injected with BSp73ASs6 cells expressing Met-shRNA or control-shRNA received doxycycline in the drinking water. At the end of the experiment, primary tumors were isolated. Lungs and axillary lymph nodes were analyzed. The tissues were incubated for 24 h in a zinc-fixative (0.5 g calcium acetate, 5.0 g zinc acetate, 5.0 g zinc chloride, in 1 L 0.1 M Tris pH 7.4) and embedded in paraffin for further analysis. In case of peptide or antibody treatment tumors developed for one week before the first treatment. Where indicated, animals received 200 μg of peptide or antibody per injection three times per week for four weeks. Tumor growth was monitored weekly using a caliper Animals were killed at day 28 or 30 after start of the treatment.\nFor histomorphological analysis paraffin-embedded sections of lungs were stained with hematoxylin and eosin and periodic acid-Schiff (H&E or PAS). Serial sections of the whole tissue blocks were examined by analyzing slices every 20 μm; in each slice, the presence and the extension of the metastatic deposit was assessed, according to the procedure routinely used by pathologists to evaluate the presence of micrometastases.\nRat peptides had the sequences KEKWFENEWQGKNP (SEQ ID NO: 10) and NEWQG (SEQ ID NO: 11). BSp73ASs6 cells were subcutaneously injected into syngeneic rats and rat CD44v6 peptides of SEQ ID NO: 10 or SEQ ID NO: 11 (or mouse control peptides) or the CD44v6 antibody (or IgGs as a control) were injected intra-tumoral or intravenously three times a week. […] This is compatible with the fact that also BSp73AS cells or BSp73ASv1-10Δv6 cells can induce the formation of primary tumors similarly to the v6 transfectants."}, "murine 4T1 cells": {"test_system": "murine 4T1 cells", "assay": "Syngeneic orthotopic 4T1 mammary carcinoma model in BALB/c mice", "format": "in vivo, mouse", "description": "FIG. 27: Treatment with the v6 14mer reduces growth of the primary tumor and macroscopic metastases formation in the lung. 1×10^6 murine 4T1 cells per mouse were diluted in 50 μl RPMI plus 50 μl Matrigel and injected into the […] mammary fat pad of 10 female BALB/c mice. One week after the injection, the mice were either injected intraperitoneally with 20 μg of the murine v6 14mer dissolved in 100 μl PBS or with 20 μg of control peptide (rat v6 14mer) dissolved in 100 μl PBS. The injection was performed 3 times per week for two weeks. After 2 weeks the mice were sacrificed and the primary tumors and the lungs were extracted. A: Overall reduction of the tumor volume in the v6 peptide treated group B: Immunofluorescent staining for the endothelial marker CD34 to monitor vascularization of the primary tumor. Graphic representation of the reduction of the total vessel area. C: The v6 peptides led to a reduction in macroscopic lung metastasis. The black arrows mark examples for metastases. The scale bar corresponds to a size of 1 cm. Statistical evaluation of the average number of lung metastases. Significance was calculated using Student's t test: p*<0.01; **p<0.005. Each group consisted of 5 animals.\nAll animals were handled according to German regulations for animal experimentation. The animal experiments were approved by the Regierungspräsidium Karlsruhe (35-9185.81/G-83/04). All mice were obtained from Harlan. 1×10^6 murine 4T1 cells (diluted in either […] of control peptide or […] of CD44v6 peptide (peptides of SEQ ID No.: 6 were tested) in PBS) were orthotopically injected into the mammary fat pad of female BALB/c mice. In succession, 5 of the mice were injected intraperitoneally with a CD44v6-peptide (20 μg per mouse) (peptides of SEQ ID No.: 6 were tested) and 5 of the mice were injected with an unspecific control peptide (20 μg per mouse) three times a week. After four weeks, the mice were sacrificed and the tumors as well as the lung and lymph nodes of the animals were extracted. These organs were then fixed in 4% Formalin, processed and embedded in paraffin. […]"}, "BSp73ASs6 tumors": {"test_system": "BSp73ASs6 tumors", "conditions": "rat", "text": "To avoid autofluorescence of fur, rats were shaved around the tumor prior to imaging. Subsequently, animals were anesthetized using 2% isoflurane and gently fixed on the devices' heated plate for the entire time of data acquisition. To reduce fluorescence background, rats were fed with chlorophyll-reduced food (Provimi Kliba AG, Kaiseraugst, Switzerland) for one week prior NIRF imaging. All in vivo analyses were preceded by native scans of animals without any injection of the fluorescent probe. For in vivo analysis, rats were injected with 200 μg DY681-labeled rat v6 11 mer peptide or the human v6 11 mer peptide via the tail vein. Controls were injected with the equal amount of DY681-labeled mouse v6 11mer peptide. […] All peptides were labeled with the fluorescent dye DY681. Data were acquired at the indicated time after injection of the peptides. […]\nDY681 fluorescence was measured using excitation at 670 nm in combination with a 700 nm long-pass emission filter. […] Data sets were analyzed with OptiView (ART).\nFor in vivo experiments, BSp73ASs6 cells were injected subcutaneously into syngeneic rats. […] The accumulation of the fluorescence was measured in the tumor region by Optix MX2 at the indicated time points. […] Then, in vivo binding kinetics of the Dy681-labeled v6 peptides to the subcutaneous tumors were determined. […]"}},
  "note": "“Also recorded” adds a separate entry of the source. Like-named read-outs stand apart in the source and are kept apart here. No end group written: not given here.",
  "data": [
    {"substance": "A-R-W-H-A (ARWHA) [SEQ ID NO: 3]", "values": [
      {"measurement": "CD44v6 mediated activation of Met", "setting": "Met", "value": "still active in inhibiting CD44v6 mediated activation of Met"},
      {"measurement": "CD44v6 mediated activation of Met", "setting": "Met; listed as SEQ ID NO:3", "value": "capable of abrogating Met activation"}
    ]},
    {"substance": "KEKWFENEWQGKNP [SEQ ID NO: 10, rat CD44v6 14mer; control peptide in human models]", "values": [
      {"measurement": "HGF-induced phosphorylation/activation of ERK", "setting": "CD44v6", "value": "no influence"},
      {"measurement": "HGF-induced phosphorylation/activation of Met", "setting": "CD44v6", "value": "no influence"},
      {"measurement": "Metastasis formation (liver)", "setting": "L3.6pl cells", "value": "neither influence on metastasis formation; also recorded: no influence on metastasis formation"},
      {"measurement": "Outgrowth of the primary tumor in the pancreas", "setting": "L3.6pl cells", "value": "no influence on metastasis formation or on growth of the primary tumor"},
      {"measurement": "Metastasis (axillary lymph nodes and lungs)", "setting": "BSp73ASs6 cells; 200 μg per injection i.t. or i.v., three times a week, four weeks, start after one week", "value": "completely inhibited metastasis"},
      {"measurement": "Metastasis and micro-metastasis in lung sections (PAS and H&E histology)", "setting": "BSp73ASs6 cells; 200 μg three times a week", "value": "no metastasis nor micro-metastasis could be detected"},
      {"measurement": "Outgrowth of primary tumors", "setting": "BSp73ASs6 cells; treatment for 28 days", "value": "not influenced"}
    ]},
    {"substance": "v6 14mer: murine v6 14mer per FIG. 27 legend; no sequence printed; b173 and b212 say SEQ ID NO: 6 (KEQWFGNRWHEGYR)", "values": [
      {"measurement": "Total number of blood vessels in the primary tumor (anti-CD34 staining)", "setting": "murine 4T1 cells; BALB/c mice, 4T1, 20 μg i.p. 3 times per week for two weeks", "value": "significantly reduced"},
      {"measurement": "Size of the primary tumor", "setting": "murine 4T1 cells; BALB/c mice, 4T1 in mammary fat pad, 20 μg i.p. 3 times per week for two weeks, 5 animals per group", "value": "significant decrease of tumor size"},
      {"measurement": "Macroscopic lung metastases per animal", "setting": "murine 4T1 cells; macroscopic analysis of the lungs, 5 animals per group", "value": "three animals showed no macroscopic metastases at all, whereas two animals had only one metastase"}
    ]},
    {"substance": "WFQNGWQGKNP (also: DY681 fluorescent dye label) [mv6 pep Dy681, reference compound]", "values": [
      {"measurement": "Ex vivo fluorescence in excised tumors and lungs", "setting": "BSp73ASs6 tumors", "value": "not in tumors and lungs"}
    ]}
  ]
}
